Data on 1 molecule can be found in patent US9828393B2, “Silylalkyloxyaryl compounds and methods for treating cancer” (THE REGENTS OF THE UNIVERSITY OF COLORADO, a body corporate, priority 2013, dated 2017).

For one assay, the system named is HOP-62. The assay is described as follows: NCI-60 cell line screen (SRB), HOP-62. Type of assay: cell-based, human. The note with it: Homo sapiens; Non-Small Cell Lung Cancer; HOP-62; 48 h drug incubation; read-out: GI50. The method, then: (§1) Drug sensitivity data are provided as GI50s (concentrations required to inhibit growth by 50%). The first row of the text file identifies cell lines, separated by tabs. Subsequent rows contain compound number, compound name, and GI50 for each cell line, each separated by a tab. […] For a typical screening experiment, cells are inoculated into 96 well microtiter plates in 100 μL at plating densities ranging from 5,000 to 40,000 cells/well depending on the doubling time of individual cell lines. After cell inoculation, the microtiter plates are incubated at 37° C., 5% CO2, 95% air and 100% relative humidity for 24 h prior to addition of experimental drugs. After 24 h, two plates of each cell line are fixed in situ with TCA, to represent a measurement of the cell population for each cell line at the time of drug addition (Tz). Experimental drugs are solubilized in dimethyl sulfoxide at 400-fold the desired final maximum test concentration and stored frozen prior to use. At the time of drug addition, an aliquot of frozen concentrate is thawed and diluted to twice the desired final maximum test concentration with complete medium containing 50 μg/ml gentamicin. Additional four, 10-fold or one-half log serial dilutions are made to provide a total of five drug concentrations plus control. Aliquots of 100 μl of these different drug dilutions are added to the appropriate microtiter wells already containing 100 μl of medium, resulting in the required final drug concentrations. Following drug addition, the plates are incubated for an additional 48 h at 37° C., 5% CO2, 95% air, and 100% relative humidity. For adherent cells, the assay is terminated by the addition of cold TCA. Cells are fixed in situ by the gentle addition of 50 μl of cold 50% (w/v) TCA (final concentration, 10% TCA) and incubated for 60 minutes at 4° C. The supernatant is discarded, and the plates are washed five times with tap water and air dried. Sulforhodamine B (SRB) solution (100 μl) at 0.4% (w/v) in 1% acetic acid is added to each well, and plates are incubated for 10 minutes at room temperature. After staining, unbound dye is removed by washing five times with 1% acetic acid and the plates are air dried. Bound stain is subsequently solubilized with 10 mM trizma base, and the absorbance is read on an automated plate reader at a wavelength of 515 nm. For suspension cells, the methodology is the same except that the assay is terminated by fixing settled cells at the bottom of the wells by gently adding 50 μl of 80% TCA (final concentration, 16% TCA). Using the seven absorbance measurements [time zero, (Tz), control growth, (C), and test growth in the presence of drug at the five concentration levels (Ti)], the percentage growth is calculated at each of the drug concentrations levels. […]

The next assay concerns LOX IMVI. The assay is described as follows: NCI-60 cell line screen (SRB), LOX IMVI. The note with it: Homo sapiens, Melanoma, 48 h drug incubation, read-out: GI50. Format: cell-based, human. The method, then:
as §1

The subject of a further assay is Melanoma cell lines. The assay is described as follows: NCI-60 cell line screen, Melanoma panel average. Type of assay: cell-based, human. The settings on record: Homo sapiens; average over Melanoma panel; read-out: GI50 Average. The method, then: as §1
The next assay concerns K-562. The experiment in a line: NCI-60 cell line screen (SRB), K-562. The note with it: Homo sapiens, K562; Leukemia; K-562; 48 h drug incubation; read-out: GI50. Format: cell-based, human. How it is done: as §1
Another assay relates to CAKI-1. The experiment in a line: NCI-60 cell line screen (SRB), CAKI-1. Format: cell-based, human. The settings on record: Homo sapiens; Renal Cancer; CAKI-1; 48 h drug incubation; read-out: GI50. How it is done:
as §1

A further assay deals with CNS Cancer cell lines. The assay is described as follows: NCI-60 cell line screen, CNS Cancer panel average. Format: cell-based, human. The note with it: Homo sapiens; average over CNS Cancer panel; read-out: GI50 Average. How it is done: as §1
The next assay relates to MOLT-4. The assay is described as follows: NCI-60 cell line screen (SRB), MOLT-4. Type of assay: cell-based, human. The settings on record: Homo sapiens; Leukemia; MOLT-4; 48 h drug incubation; read-out: GI50. How it is done: as §1
The next assay deals with MDA-MB-435. The experiment in a line: NCI-60 cell line screen (SRB), MDA-MB-435. Type of assay: cell-based, human. The note with it: Homo sapiens; Melanoma; MDA-MB-435; 48 h drug incubation; read-out: GI50. The method, then: as §1
The subject of a further assay is UACC-257. The assay is described as follows: NCI-60 cell line screen (SRB), UACC-257. Format: cell-based, human. The settings on record: Homo sapiens; Melanoma; UACC-257; 48 h drug incubation; read-out: GI50. How it is done:
as §1

In a further assay the test system is OVCAR-8. The assay is described as follows: NCI-60 cell line screen (SRB), OVCAR-8. Type of assay: cell-based, human. The note with it: Homo sapiens; Ovarian Cancer; OVCAR-8; 48 h drug incubation; read-out: GI50. How it is done:
as §1

The next assay concerns COLO 205. The assay is described as follows: NCI-60 cell line screen (SRB), COLO 205. The settings on record: Homo sapiens; Colon Cancer; COLO 205; 48 h drug incubation; read-out: GI50. Type of assay: cell-based, human. How it is done: as §1
Another assay deals with NCI-H23. The experiment in a line: NCI-60 cell line screen (SRB), NCI-H23. Type of assay: cell-based, human. The note with it: Homo sapiens; Non-Small Cell Lung Cancer; NCI-H23; 48 h drug incubation; read-out: GI50. The method, then:
as §1

The next assay relates to A549/ATCC. The experiment in a line: NCI-60 cell line screen (SRB), A549/ATCC. Type of assay: cell-based, human. The settings on record: Homo sapiens; Non-Small Cell Lung Cancer; A549/ATCC; 48 h drug incubation; read-out: GI50. How it is done: as §1
In a further assay the test system is KM12. The experiment in a line: NCI-60 cell line screen (SRB), KM12. Format: cell-based, human. The note with it: Homo sapiens; Colon Cancer; KM12; 48 h drug incubation; read-out: GI50. How it is done:
as §1

The target in assay [1] is EZH2 (Enhancer of Zeste Homologue 2), a Histone H3 Lys 27 (H3K27) methyltransferase (Homo sapiens, UniProt Q15910). The assay is described as follows: OIDD in vitro target-based assay, EZH2 inhibitory activity. Format: biochemical. The note with it: OIDD screen; FIG. 1. The method, then:
An organosilicon compound of the invention (GH1503) was tested using the in vitro target-based assays through an open innovation drug discovery program (OIDD). The organosilicon compound tested was given OIDD number 2351349879. […] This enzyme plays a critical role in regulating gene expression and is highly expressed in a wide range of cancer types, including bladder, breast, colon, lung, melanoma, pancreatic cancer, melanoma, sarcoma and lymphomas.

The next assay deals with SK-OV-3. The assay is described as follows: NCI-60 cell line screen (SRB), SK-OV-3. Type of assay: cell-based, human. The settings on record: Homo sapiens; Ovarian Cancer; SK-OV-3; 48 h drug incubation; read-out: GI50. The method, then:
as §1

The subject of the next assay is HS 578T. The experiment in a line: NCI-60 cell line screen (SRB), HS 578T. Type of assay: cell-based, human. The note with it: Homo sapiens; Breast Cancer; HS 578T; 48 h drug incubation; read-out: GI50. The method, then:
as §1

The next assay concerns 786-0. The experiment in a line: NCI-60 cell line screen (SRB), 786-0. The settings on record: Homo sapiens; Renal Cancer; 786-0; 48 h drug incubation; read-out: GI50. Format: cell-based, human. How it is done: as §1
For the next assay, the system named is HCT-116. The assay is described as follows: NCI-60 cell line screen (SRB), HCT-116. Type of assay: cell-based, human. The note with it: Homo sapiens; Colon Cancer; HCT-116; 48 h drug incubation; read-out: GI50. The method, then:
as §1

For a further assay, the system named is A-498. The experiment in a line: NCI-60 cell line screen (SRB), A-498. Type of assay: cell-based, human. The settings on record: Homo sapiens, A498; Renal Cancer; A-498; 48 h drug incubation; read-out: GI50. The method, then: as §1

The term GI50 denotes the concentration giving 50% growth inhibition.

Chain of EZH2 (Enhancer of Zeste Homologue 2), a Histone H3 Lys 27 (H3K27) methyltransferase (Q15910 whole entry): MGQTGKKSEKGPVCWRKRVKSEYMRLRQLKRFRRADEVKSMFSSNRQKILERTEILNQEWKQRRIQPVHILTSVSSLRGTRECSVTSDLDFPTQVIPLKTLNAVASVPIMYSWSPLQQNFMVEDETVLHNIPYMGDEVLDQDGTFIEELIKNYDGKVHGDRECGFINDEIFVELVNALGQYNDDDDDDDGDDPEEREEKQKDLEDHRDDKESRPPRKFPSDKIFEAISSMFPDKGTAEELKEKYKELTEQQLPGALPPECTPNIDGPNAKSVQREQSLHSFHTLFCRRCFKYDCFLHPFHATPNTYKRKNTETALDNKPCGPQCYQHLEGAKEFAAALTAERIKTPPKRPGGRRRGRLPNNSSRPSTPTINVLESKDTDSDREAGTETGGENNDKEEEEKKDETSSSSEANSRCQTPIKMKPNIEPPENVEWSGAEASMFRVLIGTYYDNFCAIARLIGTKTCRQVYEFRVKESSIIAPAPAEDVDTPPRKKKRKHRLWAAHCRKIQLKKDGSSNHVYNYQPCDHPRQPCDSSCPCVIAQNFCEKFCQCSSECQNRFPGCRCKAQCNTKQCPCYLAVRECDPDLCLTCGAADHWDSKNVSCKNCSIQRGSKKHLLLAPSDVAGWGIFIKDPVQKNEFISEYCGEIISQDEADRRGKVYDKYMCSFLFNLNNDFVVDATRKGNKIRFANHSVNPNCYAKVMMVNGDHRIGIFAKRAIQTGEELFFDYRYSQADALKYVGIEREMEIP
Chain of EZH2 (Enhancer of Zeste Homologue 2), a Histone H3 Lys 27 (H3K27) methyltransferase (O75530 whole entry partner): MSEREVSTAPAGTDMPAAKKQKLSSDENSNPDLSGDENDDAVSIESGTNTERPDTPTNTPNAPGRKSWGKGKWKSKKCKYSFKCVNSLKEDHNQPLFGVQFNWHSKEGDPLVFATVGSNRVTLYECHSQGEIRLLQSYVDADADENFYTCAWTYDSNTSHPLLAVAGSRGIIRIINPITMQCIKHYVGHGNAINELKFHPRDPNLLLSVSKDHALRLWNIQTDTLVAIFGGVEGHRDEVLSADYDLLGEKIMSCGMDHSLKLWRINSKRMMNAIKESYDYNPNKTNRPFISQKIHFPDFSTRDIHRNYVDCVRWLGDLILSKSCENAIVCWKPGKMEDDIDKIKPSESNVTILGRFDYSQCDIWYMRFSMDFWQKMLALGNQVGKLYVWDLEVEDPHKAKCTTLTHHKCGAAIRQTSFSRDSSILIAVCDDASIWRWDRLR
Chain of EZH2 (Enhancer of Zeste Homologue 2), a Histone H3 Lys 27 (H3K27) methyltransferase (Q15022 whole entry partner): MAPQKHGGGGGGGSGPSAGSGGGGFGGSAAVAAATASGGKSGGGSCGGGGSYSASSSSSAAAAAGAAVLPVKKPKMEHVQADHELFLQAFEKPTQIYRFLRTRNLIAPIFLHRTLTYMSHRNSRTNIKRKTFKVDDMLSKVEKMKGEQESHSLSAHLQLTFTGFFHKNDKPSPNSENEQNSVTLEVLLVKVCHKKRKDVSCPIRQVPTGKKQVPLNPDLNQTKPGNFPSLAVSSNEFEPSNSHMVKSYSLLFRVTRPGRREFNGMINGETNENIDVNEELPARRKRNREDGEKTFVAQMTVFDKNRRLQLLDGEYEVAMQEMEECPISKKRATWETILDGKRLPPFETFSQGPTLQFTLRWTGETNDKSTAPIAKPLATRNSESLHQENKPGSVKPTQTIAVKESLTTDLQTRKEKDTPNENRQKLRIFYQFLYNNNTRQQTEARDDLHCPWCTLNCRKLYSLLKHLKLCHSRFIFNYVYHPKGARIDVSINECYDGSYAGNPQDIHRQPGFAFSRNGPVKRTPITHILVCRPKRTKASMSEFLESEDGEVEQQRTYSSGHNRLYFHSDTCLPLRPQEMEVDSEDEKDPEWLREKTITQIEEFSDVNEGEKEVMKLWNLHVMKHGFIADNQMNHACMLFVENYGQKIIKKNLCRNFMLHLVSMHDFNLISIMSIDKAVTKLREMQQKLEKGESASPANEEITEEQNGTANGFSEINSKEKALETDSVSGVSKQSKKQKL

For `CCCC[Si](C)(C)COc1ccc(C(=O)N[C@@H](Cc2ccc(OCc3c(Cl)cccc3Cl)cc2)C(=O)NC2CC(C)(C)NC(C)(C)C2)cc1` [GH1503, N^α-{4-[(butyldimethylsilyl)methoxy]-benzoyl}-N-(2,2,6,6-tetramethylpiperidin-4-yl)-[O-(2,6-dichlorobenzyl)-L-tyrosinamide]], the GI50 in the assay on HOP-62 was determined as 1510 nM; in the assay on LOX IMVI, 191 nM; in the assay on Melanoma cell lines it was 1130 nM; in the assay on K-562, 333 nM; in the assay on CAKI-1, 1080 nM; with CNS Cancer cell lines it was 1100 nM. Moreover, the GI50 in the assay with MOLT-4 was found to be 315 nM; in the assay with MDA-MB-435, 250 nM; with UACC-257, 1870 nM; in the assay on OVCAR-8 it was 263 nM; in the assay with COLO 205, 342 nM; in the assay with NCI-H23 it was 1560 nM. Also, the GI50 in the assay on A549/ATCC stood at 332 nM; in the assay with KM12 it was 382 nM; in the assay on SK-OV-3, 2030 nM; with HS 578T it was 2010 nM; with 786-0 it was 468 nM; in the assay with HCT-116, 319 nM. Also, the concentration for 50% growth inhibition (GI50) in the assay on A-498 came to 1950 nM. Besides, the IC50 entry in assay [1] is listed as “in the micromolar range”.
